According to patent US9079859B2, “Synthetic lethal targeting of glucose transport” (AUCKLAND UNISERVICES LIMITED, priority 2011, dated 2015):

Legend:
Format in all cases: cell-based
[1] = system: RCC4/VHL cells; test: Necrotic cell death by trypan blue, RCC4/VHL; settings: 5 μM, 3 days
Experimental: (§1) Cell Viability Assays. For 2,3-bis[2-methoxy-4-nitro-5-sulfophenyl]-2H-tetrazolium-5-carboxanilide (XTT) assays, five thousand cells were plated in 96-well plates. The next day, vehicle (DMSO) or drug was added by serial dilution. Four days later, media were aspirated, XTT solution (0.3 mg/ml of XTT (Sigma), […] N-methyl dibenxopyrazine methyl sulfate (Sigma) in phenol red-free media) was added, and the plates were incubated at 37° C. for 1-2 hours. Metabolism of XTT was quantified by measuring the absorbance at 450 nm. IC50s were calculated using linear interpolation. For clonogenic survival assays, three hundred cells were plated per 60 mm tissue culture dish. The cells were allowed to attach overnight and then treated with vehicle or drug for 14 days. Colonies were fixed and stained with crystal violet (0.1% crystal violet in 95% ethanol). All conditions were measured in triplicate and each experiment was done in duplicate or triplicate. To determine necrosis, cells were treated with drug for a given time point. Media and cells were collected, centrifugated, and resuspended in 0.4% trypan blue (Invitrogen). Live and dead cells were counted on a hematocytometer.

[2] = system: 786-O cells; test: Glucose uptake (2-deoxy-D-[3H]glucose), 786-O; settings: 5 μM (FIG. 6C)
Experimental: Glucose Uptake. One hundred thousand cells were plated per well in a six-well plate. The next day, cells were treated with the indicated concentration of drug and incubated for the indicated time. Cells were then washed twice with phosphate-buffered saline, incubated in low-glucose medium for 30 minutes, and 3H-2-deoxyglucose (0.5 μCi) was added in 1 ml of glucose-free media for an additional hour. Cells were washed twice in PBS and lysed (0.2 N NaOH and 0.2% sodium dodecyl sulfate). Glucose uptake was quantified with a scintillation counter.

[3] = system: RCC4 cells; test: Necrotic cell death by trypan blue, RCC4; settings: 5 μM, 3 days
Experimental: as §1

[4] = system: RCC4 cells; test: Lactate production, VHL-deficient cells; set-up: dose or concentration left out as unconfirmed; settings: VHL-deficient cells vs control-treated; STF-31 as printed in FIG. 2 legend
Experimental: (§2) HIF is important to adapting to low oxygen conditions through the transcription of many genes, including those involved in glucose metabolism. It was hypothesized that STF-31 might inhibit metabolic pathways, leading to necrotic cell death. To examine whether this compound alters glycolysis, intracellular lactate, which is rapidly converted from the glycolysis end product pyruvate, and extracellular acidification were measured. Baseline levels of glycolysis were lower in wild-type VHL cells compared to VHL-deficient cells (FIGS. 2, A and B), likely a result of the constitutive expression of HIF and subsequent overexpression of glucose transporters and glycolytic enzymes in the latter.
Cell Culture and Reagents. All cells were grown in DMEM+10% FCS. ACHN and ACHN shVHL were a kind gift from George V. Thomas (UCLA). HIF overexpressing clones were described previously (Sutphin et al., Cancer Res, 67:5896-5905 (2007)). […] GLUT1 was detected with anti-GLUT1 antibody from NeoMarkers/LabVision/Fisher. For immunofluorescent studies, GLUT1, GLUT2, and GLUT3 antibodies were purchased from R&D. Pyruvate/lactate levels and hexokinase activity were both measured by fluorometric assay (BioVision and Sigma-Aldrich, respectively). ATP levels were measured by bioluminescence assay (ATP Determination Kit from Molecular Probes/Invitrogen). […]

[5] = system: cells with wild-type VHL; test: Glycolysis (lactate, extracellular acidification), wild-type VHL cells; settings: lactate and extracellular acidification
Experimental: as §2

[6] = system: 786/VHL; test: RCC panel sensitivity (Table 2); settings: VHL wild-type
[7] = system: 786-0; test: RCC panel sensitivity (Table 2); settings: 786-0, VHL mutant
[8] = system: RCC4 cells; test: XTT cell viability assay, RCC4; settings: four days of treatment; compared to RCC4/VHL; concentration-dependent
Experimental: as §1

[9] = system: RCC4 cells; test: Clonogenic survival, RCC4; settings: STF-31 5 μM, media replaced, grown for a total of 10 days (FIG. 1D)
Experimental: as §1, with “The cells were allowed to attach overnight and then treated with vehicle or drug for 14 days.” left out

[10] = system: VHL-deficient cells; test: Extracellular acidification rate, VHL-deficient cells; set-up: dose or concentration left out as unconfirmed; settings: VHL-deficient cells vs control-treated; 48 hours
Experimental: as §2

[11] = system: RCC4/VHL cell clones overexpressing HIF; test: Sensitivity of RCC4/VHL clones overexpressing HIF; settings: non-degradable, constitutively active HIF; two clones
Experimental: The hypoxia-inducible factor (HIF) family of transcription factors are VHL targets and we next examined whether toxicity was HIF-dependent (Iliopoulos et al., Nat Med., 1: 822-826 (1995); Maxwell et al., Nature, 399:271-275 (1999); Zimmer et al., Mol Cancer Res., 2:89-95 (2004)). A non-degradable, constitutively active HIF was overexpressed in RCC4/VHL cells. Two individual HIF-overexpressing clones were tested for their sensitivity to STF-31 (Sutphin et al., Cancer Res 67:5896-5905 (2007)). […] Furthermore, the sensitivity of RCCs that lack functional VHL to STF-31 is directly linked to the aberrant up-regulation of HIF.

[12] = system: RCC4 and RCC4/VHL cells; test: Apoptosis (nuclear condensation, annexin V / propidium iodide); settings: VHL-deficient and wild-type VHL RCCs, DAPI
[13] = system: GLUT1; test: GLUT1 protein levels
Source text: Moreover, the levels of soluble GLUT1 protein were also unaffected by STF-31 (FIG. 8D). […] Active analogs, which selectively kill VHL-deficient cells through glucose uptake, docked within the central channel of GLUT1 (FIG. 3F).

## CC(C)(C)c1ccc(S(=O)(=O)NCc2ccc(C(=O)Nc3cccnc3)cc2)cc1 [STF-31]
[1]
  necrotic cell death of RCC4/VHL cells: relatively insensitive
[2]
  glucose uptake in 786-O cells: impaired
[3]
  RCC4 cells exhibiting necrotic cell death: greater than 80%
[4]
  inhibition of lactate production: about 60%
[5]
  glycolysis in cells with wild-type VHL: did not alter
[6]
  3-series sensitivity (sensitivity to STF-31): Yes
[7]
  3-series sensitivity (sensitivity to STF-31): Yes
[8]
  number of RCC4 cells (cell viability by XTT): significant decrease
[9]
  RCC4 cells killed following treatment: Approximately 80%
[10]
  inhibition of extracellular acidification: about 60%
[11]
  effect of ectopic HIF expression in wild-type VHL cells on response to STF-31: sensitized
[12]
  nuclear condensation: no nuclear condensation
[13]; soluble and insoluble fractions
  levels of soluble GLUT1 protein: unaffected
[13]; time- or concentration-dependent (1.25-10 μM, 3 days)
  GLUT1 protein levels: did not affect
